Assay results as given in the Deep4Chem optical property database.
Values belong to the compound of their own block, whether it stands above or below them.

Experiment: photoluminescence quantum yield (fraction); solvent given as SMILES

photoluminescence quantum yield (in ClC(Cl)Cl): 0.24
SMILES: CCOC(=O)/C=C/C1=C(c2ccc(C)cc2)C2=Nc3c(-c4ccc(C)cc4)cc(-c4ccc(C)cc4)n3[B-](F)(F)[N+]2=C1c1ccc(C)cc1

photoluminescence quantum yield (in C1CCCCC1): 0.65 | photoluminescence quantum yield (in CC#N): 0.08
SMILES: C[Si](C)(c1cccc2ccccc12)[Si](C)(C)[Si](C)(C)[Si](C)(C)c1c2ccccc2cc2ccccc12

photoluminescence quantum yield (in C1CCOC1): 0.11
SMILES: COc1cc2c(cc1-c1ccc([N+](=O)[O-])cc1)Cc1c3c(c4c(c1-2)-c1cc(OC)c(-c2ccc([N+](=O)[O-])cc2)cc1C4)C(=O)N(CCC(C)C)C3=O

photoluminescence quantum yield (in CCCCCC): 0.1
SMILES: CC(C)[Si](C#Cc1ccc(C#C[Si](C(C)C)(C(C)C)C(C)C)c2nc3c(nc12)C1c2ccccc2C3c2ccccc21)(C(C)C)C(C)C

photoluminescence quantum yield (in ClCCl): 0.7
SMILES: CC1=c2c3c4cccc5cccc(c=3c(C)[n+]2[B-](F)(F)n2c(C)c3cc6c(-c7ccccc7)c7c(c(-c8ccccc8)c6cc3c21)-c1cccc2cccc-7c12)c54

photoluminescence quantum yield (in C1CCOC1): 0.19 | photoluminescence quantum yield (in CC#N): 0.07 | photoluminescence quantum yield (in CCCCCC): 0.6
SMILES: CC1=N/C(=C\c2cc(N(C)C)ccc2C#N)C(=O)N1C

photoluminescence quantum yield (in ClCCl): 0
SMILES: O=[N+]([O-])c1ccc(-c2nc(/C=C/c3ccccc3)c(/C=C/c3ccccc3)[nH]2)cc1

photoluminescence quantum yield (in CC#N): 0.0077 | photoluminescence quantum yield (in O): 0.003
SMILES: Nc1n[n+]([O-])c2cc(F)ccc2[n+]1[O-]

photoluminescence quantum yield (in ClCCl): 0.00091
SMILES: COC(=O)C1=C(C(=O)OC)C2(c3ccccc3-c3c(Br)cc(Br)cc32)C2(/C=C/c3ccccc3)c3cc(OC)c(OC)cc3CCN12 (centres undefined)

photoluminescence quantum yield (in ClCCl): 0.14
SMILES: F[B-]1(F)n2c(-c3ccccc3)c3ccc4ccccc4c3c2N=C2c3c(ccc4ccccc34)C(c3ccccc3)=[N+]21

photoluminescence quantum yield (in ClCCl): 0.12
SMILES: Cc1ccc(-c2c3nc(c(-c4ccc(C)cc4)c4ccc([nH]4)c(-c4ccc(OC(=O)C(C)c5cccc(C(=O)c6ccccc6)c5)cc4)c4nc(c(-c5ccc(C)cc5)c5ccc2[nH]5)C=C4)C=C3)cc1 (centres undefined)

photoluminescence quantum yield (in CN(C)C=O): 0.0287 | photoluminescence quantum yield (in ClC(Cl)Cl): 0.014
SMILES: CCCCCCOc1ccc(N(c2ccc(OCCCCCC)cc2)c2ccc(-c3sc(-c4ccc(N(c5ccc(OCCCCCC)cc5)c5ccc(OCCCCCC)cc5)cc4)c4nc(-c5ccc(OC)cc5)c(-c5ccc(OC)cc5)nc34)cc2)cc1

photoluminescence quantum yield (in ClCCl): 0.72
SMILES: C(#Cc1ccc(-n2c3ccccc3c3ccccc32)cc1)c1ccccc1

SMILES: c1ccc2c(c1)-c1ccccc1C21c2ccccc2-c2c1c1c3ccccc3ccc1c1ccccc21
photoluminescence quantum yield (in Cc1ccccc1): 0.61

photoluminescence quantum yield (in C1CCOC1): 0.048 | photoluminescence quantum yield (in ClC(Cl)Cl): 0.027
SMILES: CCCCCCCCc1ccc(-c2c3cc(-c4cc(CCCCCCCC)c(-c5ccc(-c6sc(/C=C7\SC(=S)N(CC)C7=O)cc6CCCCCCCC)s5)s4)sc3c(-c3ccc(CCCCCCCC)s3)c3cc(-c4cc(CCCCCCCC)c(-c5ccc(-c6sc(/C=C7\SC(=S)N(CC)C7=O)cc6CCCCCCCC)s5)s4)sc23)s1

photoluminescence quantum yield (in CCO): 0.0001
SMILES: CC1(C)CC(/C=C/c2ccc(-n3ccnc3)cc2)=CC(=C(C#N)C#N)C1

photoluminescence quantum yield (in CCCCCC): 0.36 | photoluminescence quantum yield (in CS(C)=O): 0.2
SMILES: C1CCN2CCCn3c2c(c2c3=NCCN=2)C1

photoluminescence quantum yield (in C1CCCCC1): 0.52 | photoluminescence quantum yield (in CCOC(C)=O): 0.12
SMILES: CC1=[N+]2C(=C(Oc3ccc4c(c3)CC[C@@H]3[C@@H]4CC[C@]4(C)C(=O)CC[C@@H]34)c3ccc(C)n3[B-]2(F)F)C=C1c1cc2n(c1)[B-](F)(F)[N+]1=CC=CC1=C2c1c(C)cc(C)cc1C

SMILES: CN(C)c1ccc(/C=C/c2nc3c4ccccc4c4ccccc4c3[nH]2)cc1
photoluminescence quantum yield (in C1CCOC1): 0.055 | photoluminescence quantum yield (in C1COCCO1): 0.176 | photoluminescence quantum yield (in CC1CCCCC1): 0.195 | photoluminescence quantum yield (in CC#N): 0.058 | photoluminescence quantum yield (in CCOC(C)=O): 0.048 | photoluminescence quantum yield (in CCOCC): 0.147 | photoluminescence quantum yield (in CN(C)C=O): 0.04 | photoluminescence quantum yield (in COC(C)=O): 0.03 | photoluminescence quantum yield (in CS(C)=O): 0.067 | photoluminescence quantum yield (in Cc1ccccc1): 0.114 | photoluminescence quantum yield (in ClC(Cl)Cl): 0.035

SMILES: CCC1(CC)c2cc(N(C)C)ccc2-c2ccc(C(F)(F)F)cc21
photoluminescence quantum yield (in C1CCCCC1): 0.67 | photoluminescence quantum yield (in CC#N): 0.04 | photoluminescence quantum yield (in CCO): 0.58 | photoluminescence quantum yield (in CCOCC): 0.63 | photoluminescence quantum yield (in CS(C)=O): 0.53 | photoluminescence quantum yield (in ClCCl): 0.44 | photoluminescence quantum yield (in c1ccccc1): 0.59
